Test results from patent publication US10131652B2, “Pyrimidinyloxy benzene derivatives as herbicides” (E. I. DU PONT DE NEMOURS AND COMPANY, priority 2014, dated 2018).

Columns and labels:
Assay type in all cases: in vivo
[1] = test system: winter wheat (Triticum aestivum); assay: Test D pre-/postemergence plant response
In short: (§1)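 Seeds sown in loam–sand blend got preemergence sprays of test chemicals in a non-phytotoxic solvent with surfactant; postemergence sprays went on plants at 1- to 4-leaf stage (2 to 18 cm) in peat/vermiculite medium. After 13 to 15 days in greenhouse, visual injury versus controls scored 0 (no effect) to 100 (complete control).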

[2] = test system: velvetleaf (Abutilon theophrasti); assay: Test D pre-/postemergence plant response
In short: as §1

[3] = test system: johnsongrass (Sorghum halepense); assay: Test D pre-/postemergence plant response
In short: as §1

soybean (Glycine max) = assay: Test D pre-/postemergence plant response
In short: as §1

[4] = test system: yellow nutsedge (Cyperus esculentus); assay: Test D pre-/postemergence plant response
In short: as §1

[5] = test system: oilseed rape (Brassica napus); assay: Test D pre-/postemergence plant response
In short: as §1

[6] = test system: large (Lg) crabgrass (Digitaria sanguinalis); assay: Test D pre-/postemergence plant response
In short: as §1

wild oat (Avena fatua) = assay: Test D postemergence plant response; conditions: for Oat, Wild plant response rating: scale 0 to 100 (0 no effect, 100 complete control); for Plant response rating, Oat, Wild: scale 0 to 100, 0 no effect, 100 complete control
In short: (§2)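 Scores reflect visual plant response relative to untreated controls on a 0 to 100 scale, where 100 means complete control. Treatment was postemergence on 2–18 cm plants in peat-based potting medium, with greenhouse assessment 13–15 days later.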

kochia (Kochia scoparia) = assay: Test D postemergence plant response; conditions: for Kochia plant response rating: scale 0 to 100 (0 no effect, 100 complete control); for Plant response rating, Kochia: scale 0 to 100, 0 no effect, 100 complete control
In short: as §2

[7] = test system: chickweed (common chickweed, Stellaria media); assay: Test D postemergence plant response; conditions: for Chickweed plant response rating: scale 0 to 100 (0 no effect, 100 complete control); for Plant response rating, Chickweed: scale 0 to 100, 0 no effect, 100 complete control
In short: as §2

[8] = test system: barnyardgrass (Echinochloa crus-galli); assay: Test C flooded paddy test plant response; conditions: Flood, 250 g ai/ha; scale of 0 to 100 where 0 is no effect and 100 is complete control; 13 to 15 days
In short: (§3)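 Water-applied treatment: compounds go directly into floodwater standing 3 cm over the soil of pots holding 2-leaf-stage plants. Depth is kept constant; plants stay in a greenhouse 13 to 15 days before visual comparison with controls on a 0–100 scale.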

[9] = test system: ducksalad (Heteranthera limosa); assay: Test C flooded paddy test plant response; conditions: Flood, 250 g ai/ha; scale of 0 to 100 where 0 is no effect and 100 is complete control; 13 to 15 days
In short: as §3

rice (Oryza sativa) = assay: Test C flooded paddy test plant response; conditions: Flood, 250 g ai/ha; scale of 0 to 100 where 0 is no effect and 100 is complete control; 13 to 15 days
In short: as §3

[10] = test system: small-flower umbrella sedge (Cyperus difformis); assay: Test C flooded paddy test plant response; conditions: Flood, 250 g ai/ha; scale of 0 to 100 where 0 is no effect and 100 is complete control; 13 to 15 days
In short: as §3

[11] = Postemergence, 31 g ai/ha, scale 0 to 100 (0 no effect, 100 complete control)
[12] = Preemergence, 4 g ai/ha, scale 0 to 100 (0 no effect, 100 complete control)
[13] = Preemergence, 8 g ai/ha, scale 0 to 100 (0 no effect, 100 complete control)
[14] = Preemergence, 16 g ai/ha, scale 0 to 100 (0 no effect, 100 complete control)
[15] = Preemergence, 31 g ai/ha, scale 0 to 100 (0 no effect, 100 complete control)
[16] = Postemergence, 16 g ai/ha, scale 0 to 100 (0 no effect, 100 complete control)
[17] = Postemergence, 62 g ai/ha, scale 0 to 100, 0 no effect, 100 complete control
[18] = Postemergence, 125 g ai/ha, scale 0 to 100, 0 no effect, 100 complete control
[19] = Preemergence, 62 g ai/ha, scale 0 to 100 (0 no effect, 100 complete control)

N#Cc1cccc(Oc2ncc(Cl)cn2)c1-c1cc(C(F)(F)F)on1 [Compound 157]
Plant response rating (scale 0 to 100), Wheat ([1]; Postemergence, 4 g ai/ha): 0
Plant response rating (scale 0 to 100), Wheat ([1]; Postemergence, 8 g ai/ha): 0
Wheat plant response rating [1, 11]: 0
Plant response rating, Wheat [1, 12]: 0
Plant response rating, Wheat [1, 13]: 0
Plant response rating, Wheat [1, 14]: 0
Plant response rating, Wheat [1, 15]: 5
Plant response rating (scale 0 to 100), Velvetleaf ([2]; Postemergence, 4 g ai/ha): 5
Plant response rating (scale 0 to 100), Velvetleaf ([2]; Postemergence, 8 g ai/ha): 5
Velvetleaf plant response rating [2, 11]: 40
Plant response rating, Velvetleaf [2, 12]: 0
Plant response rating, Velvetleaf [2, 13]: 5
Plant response rating, Velvetleaf [2, 14]: 45
Plant response rating, Velvetleaf [2, 15]: 75
Plant response rating (scale 0 to 100), Johnsongrass ([3]; Postemergence, 4 g ai/ha): 0
Plant response rating (scale 0 to 100), Johnsongrass ([3]; Postemergence, 8 g ai/ha): 0
Johnsongrass plant response rating [3, 11]: 0
Plant response rating, Johnsongrass [3, 12]: 0
Plant response rating, Johnsongrass [3, 13]: 0
Plant response rating, Johnsongrass [3, 14]: 0
Plant response rating, Johnsongrass [3, 15]: 5
Plant response rating (scale 0 to 100), Soybean (soybean (Glycine max); Postemergence, 4 g ai/ha): 5
Plant response rating (scale 0 to 100), Soybean (soybean (Glycine max); Postemergence, 8 g ai/ha): 10
Soybean plant response rating (soybean (Glycine max); [11]): 35
Plant response rating, Soybean (soybean (Glycine max); [12]): 0
Plant response rating, Soybean (soybean (Glycine max); [13]): 0
Plant response rating, Soybean (soybean (Glycine max); [14]): 0
Plant response rating, Soybean (soybean (Glycine max); [15]): 50
Plant response rating (scale 0 to 100), Nutsedge, Yellow ([4]; Postemergence, 4 g ai/ha): 0
Plant response rating (scale 0 to 100), Nutsedge, Yellow ([4]; Postemergence, 8 g ai/ha): 5
Nutsedge, Yellow plant response rating [4, 11]: 10
Plant response rating, Nutsedge, Yellow [4, 12]: 0
Plant response rating, Nutsedge, Yellow [4, 13]: 0
Plant response rating, Nutsedge, Yellow [4, 14]: 0
Plant response rating, Nutsedge, Yellow [4, 15]: 0
Plant response rating (scale 0 to 100), Oilseed Rape ([5]; Postemergence, 4 g ai/ha): 0
Plant response rating (scale 0 to 100), Oilseed Rape ([5]; Postemergence, 8 g ai/ha): 5
Oilseed Rape plant response rating [5, 11]: 25
Plant response rating, Oilseed Rape [5, 12]: 0
Plant response rating, Oilseed Rape [5, 13]: 0
Plant response rating, Oilseed Rape [5, 14]: 40
Plant response rating, Oilseed Rape [5, 15]: 100
Plant response rating (scale 0 to 100), Crabgrass, Large ([6]; Postemergence, 4 g ai/ha): 0
Plant response rating (scale 0 to 100), Crabgrass, Large ([6]; Postemergence, 8 g ai/ha): 5
Crabgrass, Large plant response rating [6, 16]: 5
Crabgrass, Large plant response rating [6, 11]: 5
Plant response rating, Crabgrass, Large [6, 12]: 0
Plant response rating, Crabgrass, Large [6, 13]: 0
Plant response rating, Crabgrass, Large [6, 14]: 5
Plant response rating, Crabgrass, Large [6, 15]: 40
Plant response rating (scale 0 to 100), Oat, Wild (wild oat (Avena fatua); 4 g ai/ha): 0
Plant response rating (scale 0 to 100), Oat, Wild (wild oat (Avena fatua); 8 g ai/ha): 0
Oat, Wild plant response rating (wild oat (Avena fatua); 31 g ai/ha): 10
Plant response rating (scale 0 to 100), Kochia (kochia (Kochia scoparia); 4 g ai/ha): 0
Plant response rating (scale 0 to 100), Kochia (kochia (Kochia scoparia); 8 g ai/ha): 20
Kochia plant response rating (kochia (Kochia scoparia); 31 g ai/ha): 90
Plant response rating (scale 0 to 100), Chickweed ([7]; 4 g ai/ha): 5
Plant response rating (scale 0 to 100), Chickweed ([7]; 8 g ai/ha): 10
Chickweed plant response rating ([7]; 16 g ai/ha): 50
Chickweed plant response rating ([7]; 31 g ai/ha): 75
Barnyardgrass plant response rating [8]: 0
Ducksalad plant response rating [9]: 40
Rice plant response rating (rice (Oryza sativa)): 0
Sedge, Umbrella plant response rating [10]: 40

FCc1cc(-c2c(F)cccc2Oc2ncc(Cl)cn2)no1 [Compound 57]
Wheat plant response rating [1, 16]: 0
Wheat plant response rating [1, 11]: 5
Plant response rating, Wheat [1, 17]: 15
Plant response rating, Wheat [1, 18]: 20
Plant response rating (scale 0 to 100), Wheat ([1]; Preemergence, 125 g ai/ha): 5
Plant response rating, Wheat [1, 14]: 0
Plant response rating, Wheat [1, 15]: 0
Plant response rating, Wheat [1, 19]: 0
Velvetleaf plant response rating [2, 16]: 10
Velvetleaf plant response rating [2, 11]: 50
Plant response rating, Velvetleaf [2, 17]: 70
Plant response rating, Velvetleaf [2, 18]: 80
Plant response rating (scale 0 to 100), Velvetleaf ([2]; Preemergence, 125 g ai/ha): 100
Plant response rating, Velvetleaf [2, 14]: 100
Plant response rating, Velvetleaf [2, 15]: 100
Plant response rating, Velvetleaf [2, 19]: 100
Johnsongrass plant response rating [3, 16]: 0
Johnsongrass plant response rating [3, 11]: 0
Plant response rating, Johnsongrass [3, 17]: 5
Plant response rating, Johnsongrass [3, 18]: 5
Plant response rating (scale 0 to 100), Johnsongrass ([3]; Preemergence, 125 g ai/ha): 80
Plant response rating, Johnsongrass [3, 14]: 0
Plant response rating, Johnsongrass [3, 15]: 10
Plant response rating, Johnsongrass [3, 19]: 40
Soybean plant response rating (soybean (Glycine max); [16]): 40
Soybean plant response rating (soybean (Glycine max); [11]): 70
Plant response rating, Soybean (soybean (Glycine max); [17]): 85
Plant response rating, Soybean (soybean (Glycine max); [18]): 90
Plant response rating (scale 0 to 100), Soybean (soybean (Glycine max); Preemergence, 125 g ai/ha): 95
Plant response rating, Soybean (soybean (Glycine max); [15]): 65
Plant response rating, Soybean (soybean (Glycine max); [19]): 95
Nutsedge, Yellow plant response rating [4, 16]: 0
Nutsedge, Yellow plant response rating [4, 11]: 5
Plant response rating, Nutsedge, Yellow [4, 17]: 5
Plant response rating, Nutsedge, Yellow [4, 18]: 5
Plant response rating (scale 0 to 100), Nutsedge, Yellow ([4]; Preemergence, 125 g ai/ha): 20
Plant response rating, Nutsedge, Yellow [4, 14]: 0
Plant response rating, Nutsedge, Yellow [4, 15]: 10
Plant response rating, Nutsedge, Yellow [4, 19]: 20
Oilseed Rape plant response rating [5, 16]: 30
Oilseed Rape plant response rating [5, 11]: 55
Plant response rating, Oilseed Rape [5, 17]: 75
Plant response rating, Oilseed Rape [5, 18]: 90
Plant response rating (scale 0 to 100), Oilseed Rape ([5]; Preemergence, 125 g ai/ha): 100
Plant response rating, Oilseed Rape [5, 14]: 100
Plant response rating, Oilseed Rape [5, 15]: 100
Plant response rating, Oilseed Rape [5, 19]: 100
Crabgrass, Large plant response rating [6, 16]: 5
Crabgrass, Large plant response rating [6, 11]: 5
Plant response rating, Crabgrass, Large [6, 17]: 10
Plant response rating, Crabgrass, Large [6, 18]: 10
Plant response rating (scale 0 to 100), Crabgrass, Large ([6]; Preemergence, 125 g ai/ha): 100
Plant response rating, Crabgrass, Large [6, 14]: 75
Plant response rating, Crabgrass, Large [6, 15]: 85
Plant response rating, Crabgrass, Large [6, 19]: 100
Oat, Wild plant response rating (wild oat (Avena fatua); 16 g ai/ha): 0
Oat, Wild plant response rating (wild oat (Avena fatua); 31 g ai/ha): 0
Plant response rating, Oat, Wild (wild oat (Avena fatua); 62 g ai/ha): 5
Plant response rating, Oat, Wild (wild oat (Avena fatua); 125 g ai/ha): 15
Kochia plant response rating (kochia (Kochia scoparia); 16 g ai/ha): 75
Kochia plant response rating (kochia (Kochia scoparia); 31 g ai/ha): 90
Plant response rating, Kochia (kochia (Kochia scoparia); 62 g ai/ha): 95
Plant response rating, Kochia (kochia (Kochia scoparia); 125 g ai/ha): 100
Chickweed plant response rating ([7]; 16 g ai/ha): 30
Chickweed plant response rating ([7]; 31 g ai/ha): 50
Plant response rating, Chickweed ([7]; 62 g ai/ha): 55
Plant response rating, Chickweed ([7]; 125 g ai/ha): 75
Barnyardgrass plant response rating [8]: 0
Ducksalad plant response rating [9]: 90
Rice plant response rating (rice (Oryza sativa)): 0
Sedge, Umbrella plant response rating [10]: 75
